Assay in all cases: NCI-60 cell line screen, 48 h
Experiment [1] deals with UO-31 renal.
For experiment [2], the system named is UACC-257 melanoma.
Experiment [3] concerns DU-145 prostate.
Experiment [4] concerns MOLT-4 leukemia.
Experiment [5] has as its system RPMI-8226 leukemia.
Experiment [6] has as its system SNB-19 CNS.
Experiment [7] deals with T-47D breast.
In experiment [8] the test system is M14 melanoma.
For experiment [9], the system named is HS 578T breast.
Experiment [10] deals with MDA-MB-435.

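Values below derive from 48-hour exposures of cells grown in 96-well plates, with endpoints linearly interpolated between the two concentrations bracketing the appropriate inhibition level. GI50 is the concentration that inhibits growth by half. TGI marks complete inhibition of growth.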

Consider `COc1cc([C@@H]2c3cc4c(cc3C(Br)[C@H]3COC(=O)[C@H]23)OCO4)cc(OC)c1OC` (some centres not stated), for which the GI50 was 0.418 µM in [1]; 0.214 µM in experiment [2]; 0.252 µM in [3]; 0.431 µM in experiment [4]; 0.507 µM in experiment [5]; 0.553 µM in experiment [6]. Besides, the GI50 in [7] was > 100 µM; in experiment [8] it was 0.22 µM; in experiment [9] it was 0.142 µM; in [10], 0.0365 µM. Further, the TGI in experiment [1] was > 100 µM; in experiment [2] it was > 100 µM; in [3], 0.646 µM; in experiment [4] it was > 100 µM; in [5], > 100 µM; in experiment [6] it was > 100 µM. For the same molecule, the TGI in [7] was > 100 µM; in experiment [9], 0.707 µM.

Turning to `CCN(CC)c1ccc(N=C2C=C(C(=O)Nc3ccc(S(C)(=O)=O)cc3)C(=O)c3ccccc32)c(C)c1`, the GI50 is 67.5 µM in experiment [1]; > 100 µM in [2]; > 100 µM in experiment [3]; > 100 µM in experiment [4]; 4.96 µM in experiment [5]; 4.39 µM in experiment [6]. In addition, the GI50 in [7] is 51.9 µM; in experiment [8], 88.5 µM; in [9], 1.87 µM; in [10], 7.49 µM. For the same molecule, the TGI in experiment [1], in experiment [2], in experiment [3], in experiment [4], in experiment [5] and in [6] was > 100 µM each time. For the same molecule, the TGI is > 100 µM in experiment [7], > 100 µM in experiment [8], > 100 µM in experiment [9] and 54.8 µM in [10].

Regarding `Cc1ccccc1S(=O)(=O)N1[C@H](c2ccc(Cl)cc2)C(C(=O)N[C@@H](Cc2ccccc2)C(N)=O)=C[C@@H]1C(C)(C)C`, the GI50 in [1] was 4.23 µM; in experiment [2], 8.31 µM; in [3], 8.26 µM; in experiment [4], 4.87 µM; in experiment [5], 3.07 µM; in experiment [6], 6.07 µM. The GI50 in experiment [7] is 5 µM; in experiment [8], 6.44 µM; in [9], 8.64 µM; in [10], 6.83 µM. Also, the TGI in experiment [1] was determined as 10.7 µM; in [2], 17.2 µM; in [3] it was 20.4 µM; in experiment [4], 31.3 µM; in experiment [5], 26.7 µM; in [6] it was 17.3 µM. Besides, the TGI in experiment [7] turned out to be 20.2 µM; in [8], 17 µM; in [9] it was 26.4 µM; in [10], 13.7 µM.

Regarding `O=[N+]([O-])c1cc(O)c(O)cc1-c1cn2ccsc2n1`, the GI50 in experiment [1] is 34.1 µM; in experiment [2], > 100 µM; in [3] it was 17.2 µM; in experiment [4], 75.9 µM; in experiment [5] it was 54.6 µM; in [6] it was 91.1 µM. In addition, the GI50 in [7] was > 100 µM; in experiment [8], 20 µM; in [10], 47.3 µM. The TGI in experiment [1], in [2], in experiment [3], in [4], in experiment [5] and in experiment [6] was > 100 µM throughout. Besides, the TGI in experiment [7] is > 100 µM; in [8] it was 57.7 µM; in [9] it was 36 µM; in [10], > 100 µM.

With `C=C(C)C(=O)OC1CC2(C)OC2CC(OC(C)=O)/C(C)=C/C2OC(=O)C(=C)C21` (configuration not stated), the TGI in experiment [1] was determined as 12.5 µM; in experiment [2], 18.5 µM; in experiment [3], 4.7 µM; in experiment [4] it was 6.69 µM; in [5], 3.49 µM; in experiment [6], 28.7 µM. Besides, the TGI stood at 14.4 µM in experiment [7], 9.39 µM in experiment [8], 30.6 µM in experiment [9] and 7.5 µM in experiment [10].

As to `COc1ccc(C(O)c2cc3c(N)c(C(=O)Nc4cccc(Cl)c4C)sc3nc2C)cc1` (configuration not stated), the GI50 was 0.627 µM in experiment [1]; 1 µM in experiment [2]; 0.929 µM in experiment [3]; 0.846 µM in experiment [4]; 0.681 µM in [5]; 0.943 µM in experiment [6]. The GI50 in experiment [7] was 0.953 µM; in experiment [8] it was 0.872 µM; in [9], 0.774 µM; in [10], 0.825 µM. Also, the TGI in [1] worked out at 1.27 µM; in experiment [2] it was 2.02 µM; in experiment [3], 1.85 µM; in experiment [4], 2.13 µM; in experiment [5], 1.85 µM; in experiment [6], 1.92 µM. In addition, the TGI in experiment [7] turned out to be 2.2 µM; in [8] it was 1.78 µM; in [9], 1.79 µM; in experiment [10], 1.56 µM.

The record behind these values is PubChem BioAssay (NCI).
